The values below come from patent EP0503044B1, “PEPTIDE COMPOUNDS OF LAEVOROTATORY AMINO ACIDS AND RING MOLECULES, AND THERAPEUTICAL APPLICATIONS THEREOF” (POLIFARMA S.p.A., priority 1990, dated 1992).

Square brackets hold non-standard residues; d marks the D form. Peptide text beside a SMILES is read from it. * marks the point of attachment. Trp(1-Me) = Cn1cc(C[C@H](N)C(=O)O)c2ccccc21; Hyp = O=C(O)[CH]1C[CH](O)CN1; Phg = N[CH](C(=O)O)c1ccccc1; pGlu = O=C1CC[CH](C(=O)O)N1; Pip = O=C(O)[C@@H]1CCCCN1; ΔPro = O=C(O)[CH]1C=CCN1; Cbz = O=C(OCc1ccccc1)*; Aze = O=C(O)[CH]1CCN1; Boc = CC(C)(C)OC(=O)*

The test system of assay [1] is spontaneously hyper-tensive rats (SHR from the company Charles River). Kind of assay: Pressure test in awake spontaneously hypertensive rats (anti-hypertensive activity). The class given is in vivo. The source says:
(§1) In the following examples will first of all be given the data necessary for synthesis of the compounds according to the present invention. There will then be given data regarding their pharmacological activity, using methods widely known to be valid. In particular, for the pressure tests, spontaneously hyper-tensive rats were used (SHR from the company Charles River), operated in such a way as to enable pressure to be read even when the animals were awake and free to move. In order to evaluate the analgesic activity, the Hot Plate and Writhing Tests were used. For the anti-inflammatory effect the test of carraginine edema was used. Finally, for immuno-modulating activity the evaluation of the stimulation of growth of human lymphocites in culture was resorted to, after the addition of specific antigens.

A short description of assay [2]: Writhing test (analgesic activity). The settings on record: dose not stated. Format: in vivo.
Excerpt: as §1, with “antigens. The results obtained for each synthesized compound are given at the end of each example.” for “antigens.”
Background: An intraperitoneal irritant provokes the stretching counted in writhing tests.

The test system of assay [3] is human lymphocites in culture. Kind of assay: Stimulation of growth of human lymphocytes in culture after addition of specific antigens (immuno-modulating activity). The class given is cell-based.
Excerpt: as §1, with “antigens. The results obtained for each synthesized compound are given at the end of each example.” for “antigens.”

A short description of assay [4]: Analgesic activity, test not given (Hot Plate and Writhing Tests used). Format: in vivo. The settings on record: test and dose not stated.
Excerpt: as §1

The subject of a further assay is carraginine edema. Nature of the assay: Carrageenin edema test (anti-inflammatory effect). Format: in vivo. To be noted: dose not stated.
Excerpt: as §1
For orientation: The carrageenan paw model is a standard test of acute inflammation.

Assay [5] is described as follows: Hot Plate test (analgesic activity). The class given is in vivo.
Excerpt: as §1, with “antigens. The results obtained for each synthesized compound are given at the end of each example.” for “antigens.”
Background: Hot-plate and tail-flick tests time the reaction to a heat stimulus.

Regarding (L)-Pyr-Gly-(L)-Pme [compound 23], the anti-hypertensive effect result in assay [1] (8 mg/Kg i.p.) is recorded as “good”. Moreover, in assay [2], the “reduction of contorsions during the Writhing test” value is given as 80%. Besides, the immune response entry in assay [3] is given as “good”. Further, the analgesic effect entry in assay [4] is listed as “excellent”.

Take “Z-(L)-Pyr-(L)-Leu-(L)-TrpOMe [compound 19]”: the anti-hypertensive effect result in assay [1] (dose not stated) is “slight”. In the assay on carraginine edema, the anti-inflammatory effect entry was “fair”.

With `COC(=O)[C@H](Cc1c[nH]c2ccccc12)NC(=O)[C@H](CC(C)C)NC(=O)[C@@H]1CCCCN1C(=O)OCc1ccccc1` [compound 15, Z-(L)-Pip-(L)-Leu-(L)-TrpOMe] (Cbz-[Pip]-Leu-Trp-OMe), in assay [1] (2 mg/Kg i.v.), the anti-hypertensive effect result is recorded as “good” and the reduction in pressure result is “up to 30%”. Also, in the assay with carraginine edema, the anti-inflammatory effect result is given as “consistent”. Besides, the immune response result in assay [3] is listed as “slight increase”.

Take `COC(=O)C(Cc1c[nH]c2ccccc12)NC(=O)C(CC(C)C)NC(=O)C1CC(O)CN1C(=O)OCc1ccccc1` (stereo not drawn) [compound 16, Z-(L)-Hyp-(L)-Leu-(L)-TrpOMe] (Cbz-[Hyp]-Leu-Trp-OMe; configuration not given here): the anti-hypertensive effect result in assay [1] (dose not stated) is on record as “bland”. Also, the analgesic effect result in assay [4] is given as “modest”.

“Z-(L)-Pyr-(L)-Leu-(S)-CytOMe [compound 20]”: the anti-hypertensive effect result in assay [1] (dose not stated) is “bland”. The anti-inflammatory effect result in the assay on carraginine edema is “fair”.

Take `COC(=O)[C@H](Cc1c[nH]c2ccccc12)NC(=O)[C@H](CC(C)C)NC(=O)c1ccco1` [compound 8, 2-Fur-(L)-Leu-(L)-TrpOMe]: in assay [1] (4 mg/Kg i.v.), the anti-hypertensive effect entry is “slight”. The anti-inflammatory effect result in the assay with carraginine edema is “slight”. Also, the immune response result in assay [3] was “strongly stimulated even with small doses of peptide”.

With `COC(=O)C(Cc1c[nH]c2ccccc12)NC(=O)C(CC(C)C)NC(=O)C1CCN1C(=O)OCc1ccccc1` [compound 17, z-(S)-Aze-(L)-Leu-(L)-TrpOMe] (Cbz-[Aze]-Leu-Trp-OMe; configuration not given here), the anti-hypertensive effect result in assay [1] (dose not stated) is listed as “slight”. Further, the anti-inflammatory effect result in the assay with carraginine edema was “bland”.

As to “(L)-Pyr-(L)-Leu-(S)-CytOMe [compound 25]”, in assay [1] (dose not stated), the anti-hypertensive effect result is “bland”. The analgesic effect entry in assay [4] is reported as “weak”.

For Z-(L)-Pro-(L)-Ala-(L)-Pme [compound 6], the anti-hypertensive effect entry in assay [1] (2 mg/Kg i.v.) is on record as “good”. Further, in assay [1] (2 mg/Kg i.v., after one hour), the pressure reduced entry was “approximately 25%”. Further, the “extension of time in the Hot Plate test” value in assay [5] (dose not stated) is listed as 25%. For the same compound, the “reduction of contorsions during the Writhing test” value in assay [2] was found to be 70%. Further, the anti-inflammatory effect result with carraginine edema was “rather weak”. Moreover, in assay [3], the immune response entry is on record as “more consistent”. The analgesic effect result in assay [4] is “good”.

`COC(=O)[C@@H](NC(=O)[C@H](C)NC(=O)[C@@H]1CCCN1C(=O)OCc1ccccc1)c1ccccc1` [compound 5, Z-(L)-Pro(L)-Ala-(L)-PhgOMe] (Cbz-Pro-Ala-[Phg]-OMe): in assay [1] (8 mg/Kg i.p.), the anti-hypertensive effect result is recorded as “bland”. In assay [5] (dose not stated), the “analgesic effect using the Hot Plate test” value is “moderate”.

As for Z-(L)-Pro-(L)-Ala-TrpH [compound 2], the anti-hypertensive effect entry in assay [1] (dose not stated) was “comparable to that of compound 1”. Further, the immune response result in assay [3] is “increased, but to a lesser extent than in the previous compound”.

With “(S)-Tfc-(L)-Leu-(L)-TrpOMe [compound 18]”, the anti-hypertensive effect entry in assay [1] (dose not stated) was “bland”. For the same compound, the immune response result in assay [3] was “moderate”.

`COC(=O)C(NC(=O)CNC(=O)C1CCC(=O)N1)c1ccccc1` (stereo not drawn) [compound 22, (L)-Pyr-Gly-(L)-PhgOMe] ([pGlu]-Gly-[Phg]-OMe; configuration not given here): in assay [1] (4 mg/Kg i.p.), the anti-hypertensive effect result is recorded as “excellent” and the pressure values reduced was 20%. For the same compound, in the assay on carraginine edema, the anti-inflammatory effect result is given as “very good” and the reduction of edema is on record as 70%. The immune response result in assay [3] is “increase”.

Take `COC(=O)[C@H](Cc1c[nH]c2ccccc12)NC(=O)[C@H](CC(C)C)NC(=O)c1ccc[nH]1` [compound 9, 2-Pyrrolyl-(L)-Leu-(L)-TrpOMe]: the anti-hypertensive effect entry in assay [1] (dose not stated) was “slight”. In addition, in the assay on carraginine edema, the anti-inflammatory effect result is on record as “bland reduction”.

As for “Boc-(L)-Mep-(L)-Leu-(L)-TrpOMe [compound 12]”, the anti-hypertensive effect result in assay [1] (dose not stated) is on record as “bland”. Also, the anti-inflammatory effect entry in the assay on carraginine edema is listed as “reduction of the inflammatory response”.

Regarding `COC(=O)[C@H](Cc1cn(C)c2ccccc12)NC(=O)[C@H](C)NC(=O)[C@@H]1CCCN1C(=O)OCc1ccccc1` [compound 7, Z-(L)-Pro-(L)-Ala-(1)-Me-(L)-TrpOMe] (Cbz-Pro-Ala-[Trp(1-Me)]-OMe), in assay [1] (2 mg/Kg i.v.), the anti-hypertensive effect entry is on record as “good” and the reduction in pressure came out at 10%.

“Z-(L)-Pro-(L)-Ala-(L)-OmtOMe [compound 4]”: in assay [1] (8 mg/Kg i.v.), the anti-hypertensive effect result is recorded as “bland”. The immune response entry in assay [3] is “slightly increased”.

“Z-(L)-Pro-(L)-Ala-(L)-CypOMe [compound 11]”: the anti-hypertensive effect result in assay [1] (dose not stated) is “slight”. In addition, the anti-inflammatory effect entry in the assay with carraginine edema was “moderate”.

“Z-(L)-Pyr-(L)-Leu-(S)-CypOMe [compound 21]”: the anti-hypertensive effect entry in assay [1] (dose not stated) is reported as “slight”. Further, the immune response result in assay [3] was “good”.

Regarding `COC(=O)C(Cc1c[nH]c2ccccc12)NC(=O)C(CC(C)C)NC(=O)C1CCCN1C.Cl` (stereo not shown) [compound 10, N-Me-(L)-Pro-(L)-Leu-(L)-TrpOMe.HCl], in assay [1] (2 mg/Kg i.v.), the anti-hypertensive effect entry was “excellent” and the reduction in pressure is listed as 15-20%. Further, the immune response entry in assay [3] is “slightly increased”. Besides, the analgesic effect result in assay [4] is listed as “low”.

Take Z-(L)-Pro-(L)-Ala-CytH [compound 3]: in assay [1] (8 mg/Kg i.p.), the anti-hypertensive effect result is reported as “bland”.

As to “Z-(S)-Dhi-(L)-Leu-(L)-TrpOMe [compound 14]”, in assay [1] (dose not stated), the anti-hypertensive effect entry is recorded as “bland reduction”. For the same compound, the analgesic effect entry in assay [4] is “moderate”.

With (L)-Pyr-Gly-(L)-CypOMe [compound 24], in assay [1] (dose not stated), the anti-hypertensive effect result is given as “bland”. In addition, the anti-inflammatory effect result in the assay on carraginine edema was “moderate”.

Regarding “Z-(L)-Pro-(L)-Ala-(S)-CytOEt [compound 1]”, in assay [1] (4 mg/Kg i.p.), the anti-hypertensive effect entry is listed as “good”, the “duration of the anti-hypertensive effect” value was “maintained for a number of hours” and the pressure values reduced is 15-20%. Moreover, the “pain killing effect under the Hot Plate test” value in assay [5] (4 mg/Kg i.p.) is “slight”. The “response of lymphocytes stimulated by phytohemoagglutinine (PHA)” value in assay [3] (PHA stimulation) is reported as “increases”.

For `COC(=O)C(Cc1c[nH]c2ccccc12)NC(=O)C(CC(C)C)NC(=O)C1C=CCN1C(=O)OC(C)(C)C` (stereo not drawn) [compound 13, Boc-\/^3,4-(L)-Pro-(L)-Leu-(L)-TrpOMe] (Boc-[ΔPro]-Leu-Trp-OMe; configuration not given here), the anti-hypertensive effect result in assay [1] (dose not stated) was “slightly anti-hypertensive”. Besides, the immune response result in assay [3] is “slightly increases”.
